Assay results from US20120245161A1 (SANOFI, priority 2009, published 2012).
pKi: −log10 of the molar value. Several values for one entry are separate records, joined by “and”; a condition that tells them apart may be missing. Identical values can stand only once. Counter-ions that a name gives are not always drawn.

Each molecule was assayed against T1, recombinant human beta tryptase (Homo sapiens, UniProt P20231) (assay: beta-Tryptase inhibition, chromogenic enzyme assay (substrate S2366, read at 405 nm)). Details: Ki calculated from IC50: Ki=IC50/(1+[Substrate]/Km); 0.5 mM substrate, room temperature; read-out: Tryptase Ki.
T1 construct: made in house; host or cells: yeast cells
T1 sequence (P20231 31-275): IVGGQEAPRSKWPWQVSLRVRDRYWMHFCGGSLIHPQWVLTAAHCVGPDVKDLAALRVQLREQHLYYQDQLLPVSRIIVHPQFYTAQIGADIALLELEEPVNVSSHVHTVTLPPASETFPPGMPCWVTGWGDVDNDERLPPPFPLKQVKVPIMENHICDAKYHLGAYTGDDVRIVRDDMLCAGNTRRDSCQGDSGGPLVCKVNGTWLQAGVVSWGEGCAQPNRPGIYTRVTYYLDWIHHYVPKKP
Assay type: biochemical
Text: Inhibition of this catalytic activity may be measured by the in vitro enzyme assay and the cellular assay.
Tryptase inhibition activity is confirmed using either isolated human lung tryptase or recombinant human beta tryptase expressed in yeast cells. Essentially equivalent results are obtained using isolated native enzyme or the expressed enzyme. The assay procedure employs a 96 well microplate (Costar 3590) using L-pyroglutamyl-L-prolyl-L-arginine-para-nitroanilide (S2366: Quadratech) as substrate (essentially as described by McEuen et. al. Biochem Pharm, 1996, 52, pages 331-340). Assays are performed at room temperature using 0.5 mM substrate (2×Km) and the microplate is read on a microplate reader (Beckman Biomek Plate reader) at 405 nm wavelength.
Materials and Methods for Tryptase primary screen (Chromogenic assay)
S2366 (Stock solutions of 2.5 mM).
Purified recombinant beta Tryptase Stocks of 310 μg/mL. Protocol (Single point determination) • Add 60 μL of diluted substrate (final concentration of 500 μM in assay buffer) to each well • Add compound in duplicates, final concentration of 20 volume 20 • Add enzyme at a final concentration of 50 ng/mL in a volume of 20 • Total volume for each well is 100 • Agitate briefly to mix and incubate at room temp in the dark for 30 minutes • Read absorbencies at […] Each plate has the following controls: • Totals: 60 μL of substrate, 20 μL of buffer (with 0.2% final concentration of DMSO), • 20 μL of enzyme Non-specific: 60 μL of substrate, 40 μL of buffer (with 0.2% DMSO) Totals: 60 μL of substrate, 20 μL of buffer (No DMSO), 20 μL of enzyme Non-specific: 60 μL of substrate, 40 μL of buffer (No DMSO) Protocol (IC50 and Ki determination)
The protocol is essentially the same as above except that the compound is added in duplicates at the following final concentrations: 0.01, 0.03, 0.1, 0.3, 1, 3, 10 μM (All dilutions carried out manually). For every assay, whether single point or IC50 determination, a standard compound is used to derive IC50 for comparison. From the IC50 value, the Ki can be calculated using the following formula: Ki=IC50/(1+[Substrate]/Km).

Row | Compound | pKi
1 | NCc1ccc(F)c(C2CCN(C(=O)c3cn(CCN4CCCCC4)c4ccccc34)CC2)c1 [Example 41, [4-(5-Aminomethyl-2-fluoro-phenyl)-piperidin-1-yl]-[1-(2-piperidin-1-yl-ethyl)-1H-indol-3-yl]-methanone dihydrochloride] | 7.21
2 | COCCn1cc(C(=O)N2CCC(c3cc(CN)ccc3F)CC2)c2c(Cl)cccc21 [Example 42, [4-(5-Aminomethyl-2-fluoro-phenyl)-piperidin-1-yl]-[4-chloro-1-(2-methoxy-ethyl)-1H-indol-3-yl]-methanone] | 6.91

Same assay, conditions: Tryptase Ki (nM), Ki calculated from IC50: Ki=IC50/(1+[Substrate]/Km); 0.5 mM substrate, room temperature

Row | Compound | Ki
3 | NCc1ccc(F)c(C2CCN(C(=O)c3cn(CCOC(F)(F)F)c4ccccc34)CC2)c1 [Example 81, hydrochloride] | 224 nM
4 | Cc1cccc2c(C(=O)N3CCC(c4cc(CN)ccc4F)CC3)cn(CCOC(F)(F)F)c12 [Example 88, hydrochloride] | 239 nM
5 | COCCn1cc(C(=O)N2CCC(c3cc(CN)ccc3F)CC2)c2c(-c3ccccc3)cccc21 [Example 60, [4-(5-Aminomethyl-2-fluoro-phenyl)-piperidin-1-yl]-[1-(2-methoxy-ethyl)-4-phenyl-1H-indol-3-yl]-methanone hydrochloride] | 22 nM
6 | COCCn1cc(C(=O)N2CCC(c3cc(CN)ccc3F)CC2)c2c(NC(=O)c3ccno3)cccc21 [Example 103, Isoxazole-5-carboxylic acid [3-[4-(5-aminomethyl-2-fluoro-phenyl)-piperidine-1-carbonyl]-1-(2-methoxy-ethyl)-1H-indol-4-yl]-amide hydrochloride] | 41 nM
7 | NCc1ccc(F)c(C2CCN(C(=O)c3cn(CCOCCO)c4c(OC(F)(F)F)cccc34)CC2)c1 [Example 27, [4-(5-Aminomethyl-2-fluoro-phenyl)-piperidin-1-yl]-{1-[2-(2-hydroxy-ethoxy)-ethyl]-7-trifluoromethoxy-1H-indol-3-yl}-methanone hydrochloride] | 164 nM
8 | COCCn1cc(C(=O)N2CCC(c3cc(CN)ccc3F)CC2)c2c(NC(C)=O)cccc21 [Example 96, N-[3-[4-(5-Aminomethyl-2-fluoro-phenyl)-piperidine-1-carbonyl]-1-(2-methoxy-ethyl)-1H-indol-4-yl]-acetamide hydrochloride] | 18 nM
9 | COCCn1cc(C(=O)N2CCC(c3cc(CN)ccc3OCC(N)=O)CC2)c2cccc(C)c21 [Example 31, 2-(4-Aminomethyl-2-{1-[1-(2-methoxy-ethyl)-7-methyl-1H-indole-3-carbonyl]-piperidin-4-yl}-phenoxy)-acetamide hydrochloride] | 306 nM
10 | COCCn1cc(C(=O)N2CCC(c3cc(CN)ccc3F)CC2)c2c(-c3cccc(F)c3)cccc21 [Example 63, [4-(5-Aminomethyl-2-fluoro-phenyl)-piperidin-1-yl]-[4-(3-fluoro-phenyl)-1-(2-methoxyethyl)-1H-indol-3-yl]-methanone hydrochloride] | 46 nM
11 | Cc1cccc2c(C(=O)N3CCC(c4cc(CN)ccc4F)CC3)cn(CCC3CCCCN3C)c12 (centres unmarked) [Example 8, [4-(5-Aminomethyl-2-fluoro-phenyl)-piperidin-1-yl]-{7-methyl-1-[2-(1-methyl-piperidin-2-yl)-ethyl]-1H-indol-3-yl}-methanone hydrochloride] | 35 nM
12 | COCCn1cc(C(=O)N2CCC(c3cc(CN)ccc3F)CC2)c2c(N)cccc21 [Example 75, [4-(5-Aminomethyl-2-fluoro-phenyl)-piperidin-1-yl]-[4-amino-1-(2-methoxy-ethyl)-1H-indol-3-yl]-methanone hydrochloride] | 59 nM
13 | Cc1cccc2c(C(=O)N3CCC(c4cc(CN)ccc4F)CC3)cn(CCCc3cccnc3)c12 [Example 10, [4-(5-Aminomethyl-2-fluoro-phenyl)-piperidin-1-yl]-[7-methyl-1-(3-pyridin-3-yl-propyl)-1H-indol-3-yl]-methanone dihydrochloride] | 175 nM
14 | NCc1ccc(F)c(C2CCN(C(=O)c3cn(CC(F)(F)c4ccccc4)c4ccccc34)CC2)c1 [Example 45, [4-(5-Aminomethyl-2-fluoro-phenyl)-piperidin-1-yl]-[1-(2,2-difluoro-2-phenyl-ethyl)-1H-indol-3-yl]-methanone hydrochloride] | 753 nM
15 | Cc1cccc2c(C(=O)N3CCC(c4cc(CN)ccc4F)CC3)cn(CCCF)c12 [Example 16, [4-(5-Aminomethyl-2-fluoro-phenyl)-piperidin-1-yl]-[1-(3-fluoro-propyl)-7-methyl-1H-indol-3-yl]-methanone hydrochloride] | 97 nM
16 | Cc1cccc2c(C(=O)N3CCC(c4cc(CN)ccc4F)CC3)cn(CCc3ccccc3)c12 [Example 5, [4-(5-Aminomethyl-2-fluoro-phenyl)-piperidin-1-yl]-(7-methyl-1-phenethyl-1H-indol-3-yl)-methanone hydrochloride] | 96 nM and 56 nM
17 | COCCn1cc(C(=O)N2CCC(c3cc(CN)ccc3F)CC2)c2c(C3CC3)cccc21 [Example 52, [4-(5-Aminomethyl-2-fluoro-phenyl)-piperidin-1-yl]-[4-cyclopropyl-1-(2-methoxy-ethyl)-1H-indol-3-yl]-methanone hydrochloride] | 49 nM
18 | COCCn1cc(C(=O)N2CCC(c3cc(CN)ccc3F)CC2)c2cccc(C3CC3)c21 [Example 6, [4-(5-Aminomethyl-2-fluoro-phenyl)-piperidin-1-yl]-[7-cyclopropyl-1-(2-methoxy-ethyl)-1H-indol-3-yl]-methanone hydrochloride] | 20 nM
19 | COCCn1cc(C(=O)N2CCC(c3cc(CN)ccc3F)CC2)c2c(NC(=O)N(C)C)cccc21 [Example 100, 3-[3-[4-(5-Aminomethyl-2-fluoro-phenyl)-piperidine-1-carbonyl]-1-(2-methoxy-ethyl)-1H-indol-4-yl]-1,1-dimethyl-urea hydrorchloride] | 17 nM
20 | COCCn1cc(C(=O)N2CCC(c3ccc(Cl)c(CN)c3)CC2)c2cccc(C)c21 [Example 118, [4-(3-Aminomethyl-4-chloro-phenyl)-piperidin-1-yl]-[1-(2-methoxy-ethyl)-7-methyl-1H-indol-3-yl]-methanone hydrochloride] | 832 nM
21 | COCCn1cc(C(=O)N2CCC(c3cc(CN)ccc3F)CC2)c2cccc(C#N)c21 [Example 18, 3-[4-(5-Aminomethyl-2-fluoro-phenyl)-piperidine-1-carbonyl]-1-(2-methoxy-ethyl)-1H-indole-7-carbonitrile] | 40 nM
22 | COCCn1cc(C(=O)N2CCC(c3cc(CN)ccc3OCCc3ccccc3)CC2)c2cccc(C)c21 [Example 115, [4-(5-Aminomethyl-2-phenethyloxy-phenyl)-piperidin-1-yl]-[1-(2-methoxy-ethyl)-7-methyl-1H-indol-3-yl]-methanone hydrochloride] | 390 nM
23 | COCCn1cc(C(=O)N2CCC(c3cc(F)cc(CN)c3)CC2)c2cccc(C)c21 [Example 116, [4-(5-Aminomethyl-3-fluoro-phenyl)-piperidin-1-yl]-[1-(2-methoxy-ethyl)-7-methyl-1H-indol-3-yl]-methanone hydrochloride] | 746 nM
24 | CNC(=O)COc1ccc(CN)cc1C1CCN(C(=O)c2cn(CCOC)c3c(C)cccc23)CC1 [Example 26, 2-(4-Aminomethyl-2-{1-[1-(2-methoxy-ethyl)-7-methyl-1H-indole-3-carbonyl]-piperidin-4-yl}-phenoxy)-N-methyl-acetamide hydrochloride] | 306 nM
25 | NCc1ccc(F)c(C2CCN(C(=O)c3cn(CCOC(F)(F)F)c4c(Cl)cccc34)CC2)c1 [Example 87, hydrochloride] | 207 nM
26 | COCCn1cc(C(=O)N2CCC(c3cc(CN)ccc3F)CC2)c2cccc(F)c21 [Example 39, [4-(5-Aminomethyl-2-fluoro-phenyl)-piperidin-1-yl]-[7-fluoro-1-(2-methoxy-ethyl)-1H-indol-3-yl]-methanone hydrochloride] | 10 nM
27 | COCCn1cc(C(=O)N2CCC(c3cc(CN)ccc3F)CC2)c2c(NC(=O)c3cccc4c3OCC4)cccc21 [Example 120, 2,3-Dihydro-benzofuran-7-carboxylic acid [3-[4-(5-aminomethyl-2-fluoro-phenyl)-piperidine-1-carbonyl]-1-(2-methoxy-ethyl)-1H-indol-4-yl]-amide hydrochloride] | 3 nM
28 | CNC(=O)COc1ccc(CN)cc1C1CCN(C(=O)c2cn(CCOC)c3c(OC(F)(F)F)cccc23)CC1 [Example 28, 2-(4-Aminomethyl-2-{1-[1-(2-methoxy-ethyl)-7-trifluoromethoxy-1H-indole-3-carbonyl]-piperidin-4-yl}-phenoxy)-N-methyl-acetamide hydrochloride] | 538 nM

Same assay, conditions: Tryptase Ki (nM), additional value in parentheses tagged "8923" (code not explained)

Row | Compound | Ki [nM]
29 | Cc1cccc2c(C(=O)N3CCC(c4cc(CN)ccc4F)CC3)cn(CCc3ccccc3)c12 [Example 5, [4-(5-Aminomethyl-2-fluoro-phenyl)-piperidin-1-yl]-(7-methyl-1-phenethyl-1H-indol-3-yl)-methanone hydrochloride] | 11
